Assay results: patent publication US9340577B2, “HLA binding motifs and peptides and their uses” (priority 1992, dated 2016)
No end group written: not given here.

How the values were obtained:
A*2601 = A*2601 (Homo sapiens, UniProt P04439, A114D/A173T/A270S/D101N/D185E/E277Q/E87N/F33Y/G231S/I121R/I218V/K168Q/L180W/L300P/L318F/P208A/P217A/Q86R/Q94H/R138Q/S129P/T187R/T323A/T345S/V100A/V358M); assay: biochemical; type: binding
A*2902 = A*2902 (Homo sapiens, UniProt P04439, A270S/D101N/D185E/E176V/E277Q/E87Q/F33T/G231S/H175R/I121M/I218V/I322F/K168Q/L300P/L318F/M331R/P208A/P217A/Q86L/T323A/T345S/V100A/V358M); assay: biochemical; type: binding
A*3002 = A*3002 (Homo sapiens, UniProt P04439, D101N/D140H/D185E/E176R/F33S/G80R/H175R/K168Q/Q94H/R138E/R41S/V100E); assay: biochemical; type: binding
A*3002, sequence (P04439 whole entry, looked up, the tested form may be a part, stated change not applied): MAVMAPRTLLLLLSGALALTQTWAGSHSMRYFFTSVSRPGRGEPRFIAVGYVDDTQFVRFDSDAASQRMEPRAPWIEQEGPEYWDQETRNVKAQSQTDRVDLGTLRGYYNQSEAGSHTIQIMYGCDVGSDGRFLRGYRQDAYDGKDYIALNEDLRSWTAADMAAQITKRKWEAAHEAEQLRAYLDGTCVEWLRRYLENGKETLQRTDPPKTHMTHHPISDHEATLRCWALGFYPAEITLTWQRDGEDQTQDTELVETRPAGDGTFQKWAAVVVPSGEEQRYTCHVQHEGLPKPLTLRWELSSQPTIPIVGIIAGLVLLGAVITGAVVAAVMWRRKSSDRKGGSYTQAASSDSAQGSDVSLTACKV

HLA-A1 (A*0101) = HLA-A1 (A*0101) (Homo sapiens, UniProt P04439, A114D/A174V/A182V/D101N/D185E/E176A/E190D/L180R/Q94H/R68K/S129P/T187R/V100A/V91M/W191G); assay: biochemical; type: binding
HLA-A*0201 (HLA-A2.1) = HLA-A*0201 (HLA-A2.1) (Homo sapiens, UniProt P04439, D140Y/D185E/D98H/E176V/E277Q/G131W/G231S/I119V/I121R/I166T/I218V/L300P/L318F/N151K/N90K/P208A/P217A/Q86G/Q94H/R138H/R169H/T345S); assay: biochemical; type: binding
HLA-A24 = type: binding, human
A2.1 HLA molecules = A2.1 HLA molecules (Homo sapiens, UniProt P04439, D140Y/D185E/D98H/E176V/E277Q/G131W/G231S/I119V/I121R/I166T/I218V/L300P/L318F/N151K/N90K/P208A/P217A/Q86G/Q94H/R138H/R169H/T345S); type: binding; parameters: A*0201 / A2.1 Binding / A2 Bind. / A2 / A2.1 (binding capacity): scale not given here

Row | Compound | IC50 (A*2601) | IC50 (A*2902) | IC50 (A*3002) | IC50 (HLA-A1 (A*0101)) | binding to HLA-A2.1 (column 3; no allele head shown for these rows) (HLA-A*0201 (HLA-A2.1)) | binding to HLA-A24 (column 6; no allele head shown for these rows) (HLA-A24) | A2 Bind. (A2.1 HLA molecules)
1 | VQDKILDIY [Peptide 1580.32] | > 20000 nM | > 20000 nM | 3810 nM | – | – | – | –
2 | GTDQATPGPAY [Peptide 9012.0160] | 3850 nM | – | 234 nM | – | – | – | –
3 | IVEGQVDYY [Peptide 1580.29] | > 20000 nM | > 20000 nM | – | 188 nM | – | – | –
4 | QAEPDTSNY [Peptide 1549.03] | > 20000 nM | > 20000 nM | 9930 nM | 319 nM | – | – | –
5 | LSDALEIPY [Peptide 1549.41] | 629 nM | 1600 nM | 8690 nM | 12 nM | – | – | –
6 | LSDTRNDVGPY [Peptide 9012.0164] | 586 nM | 9860 nM | 152 nM | 14 nM | – | – | –
7 | ATCVSHRGLY [Peptide 1580.22] | 492 nM | 4210 nM | – | – | – | – | –
8 | VFADLRIVY [Peptide 1549.09] | 1800 nM | 2.9 nM | 21 nM | > 20000 nM | – | – | –
9 | VTADLRIVY [Peptide 1549.50] | 121 nM | 228 nM | 50 nM | 1520 nM | – | – | –
10 | TTEPEAQNTTY [Peptide 9012.0166] | 530 nM | 1330 nM | – | 2.1 nM | – | – | –
11 | FTSMPNPEGRY [Peptide 9012.0174] | 2.8 nM | 170 nM | 104 nM | 10 nM | – | – | –
12 | ETDEEITGYLY [Peptide 9012.0180] | 27 nM | 277 nM | – | 6.4 nM | – | – | –
13 | VTQGLPREY [Peptide 9012.0128] | 3890 nM | 1010 nM | 1.7 nM | 848 nM | – | – | –
14 | KTGILTVTY [Peptide 86.0146] | > 20000 nM | 3390 nM | 20 nM | 855 nM | – | – | –
15 | LTQRNPQLCY [Peptide 9012.0151] | 21 nM | – | 7.1 nM | 6.9 nM | – | – | –
16 | TSDYYIVTY [Peptide 1549.48] | 4110 nM | 11900 nM | 2200 nM | 11 nM | – | – | –
17 | ISDYRHYCY [Peptide 1571.26] | > 20000 nM | 9.9 nM | – | 9.4 nM | – | – | –
18 | ATTDLTIVY [Peptide 1549.51] | 163 nM | – | 109 nM | – | – | – | –
19 | TIEKLTNTGLY [Peptide 1589.45] | 12 nM | 15100 nM | 220 nM | 78 nM | – | – | –
20 | VTEFRWYRY [Peptide 1549.42] | 3150 nM | 256 nM | 92 nM | 26 nM | – | – | –
21 | NTGILTVTY [Peptide 86.0152] | 3150 nM | 1400 nM | 8720 nM | – | – | – | –

Row | Compound | IC50 (A*2601) | IC50 (A*2902) | IC50 (A*3002) | IC50 (HLA-A1 (A*0101)) | binding to HLA-A2.1 (column 3; no allele head shown for these rows) (HLA-A*0201 (HLA-A2.1)) | binding to HLA-A24 (column 6; no allele head shown for these rows) (HLA-A24) | A2 Bind. (A2.1 HLA molecules)
22 | ETDLDMLRHLY [Peptide 9012.0172] | 4.4 nM | 1500 nM | 10 nM | 9.6 nM | – | – | –
23 | SMDNPEGRY [Peptide 9012.0122] | 535 nM | 1440 nM | 11 nM | 141 nM | – | – | –
24 | VTDCPYNY [Peptide 9012.0106] | > 20000 nM | 1450 nM | 1630 nM | 79 nM | – | – | –
25 | VSDFRWYRY [Peptide 1549.43] | 3070 nM | 241 nM | 99 nM | 24 nM | – | – | –
26 | ASDVTACPYNY [Peptide 9012.0176] | 5830 nM | 2440 nM | 205 nM | 18 nM | – | – | –
27 | ITDNNNGTY [Peptide 9012.0120] | 460 nM | 15600 nM | 21 nM | 32 nM | – | – | –
28 | CC[C@H](C)[C@H](N)C(=O)N[C@H](C(=O)N[C@@H](CCC(=O)O)C(=O)N[C@@H](CCCCN)C(=O)N[C@@H](CC(N)=O)C(=O)N[C@@H](CO)C(=O)NCC(=O)N[C@@H](CC(C)C)C(=O)N[C@@H](Cc1ccc(O)cc1)C(=O)O)[C@@H](C)O [Peptide 1553.04] | 513 nM | > 20000 nM | 68 nM | 58 nM | – | – | –
29 | EVDYVGLYY [Peptide 1580.33] | 161 nM | 4.5 nM | > 20000 nM | 3.6 nM | – | – | –
30 | CTSASNPSPQY [Peptide 9012.0170] | 549 nM | > 20000 nM | 484 nM | 535 nM | – | – | –
31 | CC[C@H](C)[C@H](N)C(=O)N[C@@H](CO)C(=O)N[C@@H](CCC(=O)O)C(=O)N[C@@H](Cc1ccc(O)cc1)C(=O)N[C@@H](CCCNC(=N)N)C(=O)N[C@@H](Cc1c[nH]cn1)C(=O)N[C@@H](Cc1ccc(O)cc1)C(=O)N[C@@H](CS)C(=O)N[C@@H](Cc1ccc(O)cc1)C(=O)O [Peptide 1571.27] | > 20000 nM | 264 nM | 62 nM | 38 nM | – | – | –
32 | DSDQILVGY [Peptide 1593.12] | > 20000 nM | > 20000 nM | > 20000 nM | – | – | – | –
33 | ISDSYTYY [Peptide 9012.0102] | 8550 nM | 1990 nM | 9110 nM | – | – | – | –
34 | KSAIVTLTY [Peptide 1580.20] | > 20000 nM | – | 5.7 nM | 9.2 nM | – | – | –
35 | QVDYYGLYY [Peptide 1580.19] | 777 nM | 69 nM | 1150 nM | 3.4 nM | – | – | –
36 | WTSTDNKNY [Peptide 1580.31] | 4830 nM | > 20000 nM | 7310 nM | 163 nM | – | – | –
37 | VTQGNLELTY [Peptide 9012.0147] | 6720 nM | – | 23 nM | 90 nM | – | – | –
38 | MTETLNNTEY [Peptide 1593.15] | 1620 nM | 471 nM | – | 77 nM | – | – | –
39 | DSVSSTCRY [Peptide 86.0156] | 12 nM | > 20000 nM | 994 nM | 3060 nM | – | – | –
40 | LTDKILDHY [Peptide 1593.16] | 804 nM | 4420 nM | – | 3.1 nM | – | – | –
41 | KTDILTVTY [Peptide 1593.11] | > 20000 nM | > 20000 nM | 922 nM | – | – | – | –
42 | LTDKIIDHY [Peptide 1593.09] | > 20000 nM | > 20000 nM | 6800 nM | – | – | – | –

Row | Compound | IC50 (A*2601) | IC50 (A*2902) | IC50 (A*3002) | IC50 (HLA-A1 (A*0101)) | binding to HLA-A2.1 (column 3; no allele head shown for these rows) (HLA-A*0201 (HLA-A2.1)) | binding to HLA-A24 (column 6; no allele head shown for these rows) (HLA-A24) | A2 Bind. (A2.1 HLA molecules)
43 | VTDSRNTKY [Peptide 1580.30] | > 20000 nM | > 20000 nM | – | 25 nM | – | – | –
44 | TTSPLNTSY [Peptide 9012.0116] | 2.6 nM | – | 12 nM | – | – | – | –
45 | LQDKIIDHY [Peptide 1580.21] | > 20000 nM | > 20000 nM | 2770 nM | – | – | – | –
46 | CTDKILEHY [Peptide 1593.14] | > 20000 nM | > 20000 nM | – | 110 nM | – | – | –
47 | LSSALEIPY [Peptide 1549.01] | 4110 nM | – | 83 nM | 25 nM | – | – | –
48 | STDLRDHIDY [Peptide 1580.18] | 9580 nM | > 20000 nM | – | 25 nM | – | – | –
49 | CQDKILTHY [Peptide 86.0141] | 8900 nM | – | 188 nM | 914 nM | – | – | –
50 | LTSALEIPY [Peptide 1549.40] | 358 nM | – | 161 nM | 57 nM | – | – | –
51 | RTDGNRQIIGY [Peptide 9012.0158] | > 20000 nM | > 20000 nM | 95 nM | 140 nM | – | – | –
52 | TTSPSYTY [Peptide 9012.0100] | 3440 nM | 213 nM | 323 nM | – | – | – | –
53 | HTASNPPAQY [Peptide 9012.0142] | 0.54 nM | 21 nM | 1.8 nM | – | – | – | –
54 | KVLEYVIKV | – | – | – | – | 0.095 | 0 | 0.0900
55 | VSEFRWYRY [Peptide 1549.02] | > 20000 nM | 1520 nM | – | 33 nM | – | – | –
56 | VQEKILDLY [Peptide 86.0149] | 8180 nM | 17000 nM | 193 nM | 1440 nM | – | – | –
57 | KVADLVGFLL | – | – | – | – | 0.041 | 0.0070 | 0.0560
58 | RTTQLFEDNY [Peptide 9012.0149] | > 20000 nM | 11200 nM | 7.4 nM | 2390 nM | – | – | –
59 | LQDKILDHY [Peptide 1580.27] | 7410 nM | > 20000 nM | 926 nM | 66 nM | – | – | –
60 | DSVQILVGY [Peptide 86.0147] | 2.8 nM | – | – | 1930 nM | – | – | –
61 | ATDVSHRGLY [Peptide 1593.10] | 18 nM | 1620 nM | 15 nM | 26 nM | – | – | –
62 | YSDVRKYRY [Peptide 1549.49] | > 20000 nM | 209 nM | 275 nM | 18 nM | – | – | –
63 | QTEPDTSNY [Peptide 1549.44] | 4980 nM | > 20000 nM | – | – | – | – | –
